Columns and labels:
[1] = tested on: bronchoconstriction induced by TXA2 mimetic agent U46619; test: bronchoconstriction test, Konzett-Rossler guinea-pig model, test (c); assay type: in vivo; conditions: some 3 hours following an oral dose of 5mg/kg, U46619 i.v. 1-1.5 μg/kg
Method: (c) a bronchoconstriction test involving measuring the inhibition by a test compound of the bronchoconstriction induced in the Konzett-Rossler guinea-pig model (as modified by Collier and James, Brit. J. Pharmacol., 1967, 30, 283-307) by intravenous administration of the TXA2 mimetic agent, U46619 at 1-1.5 μg/kg.

[2] = tested on: hypertensive effect of TXA2 mimetic agent U46619; test: U46619-induced hypertensive effect in anaesthetised rats, test (d); assay type: in vivo, rats (Alderley Park strain)
Method: (d) Male rats (Alderley Park strain) are anaesthetised with sodium pentobarbital and blood pressure is monitored at the carotid artery. The TXA2 mimetic agent U46619 is administered intravenously via the jugular vein and an ED50 (dose necessary to produce 50% of the maximum hypertensive effect) is established (n=3). The ED50 for U46619 is approximately 5 μg/kg. A test compound is then administered either intravenously via the jugular vein or orally via a cannula directly into the stomach and the animal challenged with an ED50 dose of U46619, five minutes after dosing with test compound and then successively every ten minutes until the hypertensive effect of U46619 is no longer blocked.

[3] = tested on: rabbit aortal strip, agonist TXA2 mimetic agent U46619; test: rabbit aortal strip model, test (a); design: species or system isolated tissue
Description: (a) The rabbit aortal strip model devised by Piper and Vane (Nature, 1969, 223, 29-35) using as agonist the TXA2 mimetic agent known as U46619 (R. L. Jones et alia in "Chemistry, Biochemistry and Pharmacological Activity of Prostanoids", eds. S. M. Roberts and F. Scheinmann, at p.211; Pergamon Press, 1979);

SMILES | reduction of bronchoconstriction [1] | inhibition of the hypertensive effect ([2]; test (d), 80-90 minutes following an oral dose of 50 mg./kg., challenge with ED50 dose of U46619) | pA2 [3] | ED50 ([2]; Rattus norvegicus, iv, intravenously via the jugular vein, anaesthetised male rats, n=3, read-out: ED50 (dose necessary to produce 50% of the maximum hypertensive effect)) [µg/kg]
CCC[C@H]1OC[C@H](c2ccccc2C)[C@@H](CCCCCCC(=O)O)O1 (relative stereo) [Example 12, 7-([2,4-cis,4,5-trans]-2-n-propyl-5-o-tolyl-1,3-dioxan-4-yl)heptanoic acid] | significant reduction of bronchoconstriction | complete inhibition of the hypertensive effect | 6.7 | 
CCCCC[C@H](O)/C=C/[C@@H]1[C@@H](C/C=C\CCCC(=O)O)[C@H]2CO[C@@H]1C2 [Example U46619, reference compound] |  |  |  | ~5
